Laboratory results published in paper PMC12335596 (Scientific Reports, 2025).

Legend:
urease (JBU; EC 3.5.1.5) = urease (JBU; EC 3.5.1.5) (Canavalia ensiformis, UniProt P07374); assay: In vitro urease inhibitory activity; assay type: biochemical, Jack bean
Jack bean urease = Jack bean urease (Canavalia ensiformis, UniProt P07374); assay: Kinetic study, Lineweaver–Burk plot analysis; assay type: biochemical; conditions: varying concentrations of inhibitor and urea; Vmax decreased, Km increased
Chain of Jack bean urease (P07374 whole entry, looked up): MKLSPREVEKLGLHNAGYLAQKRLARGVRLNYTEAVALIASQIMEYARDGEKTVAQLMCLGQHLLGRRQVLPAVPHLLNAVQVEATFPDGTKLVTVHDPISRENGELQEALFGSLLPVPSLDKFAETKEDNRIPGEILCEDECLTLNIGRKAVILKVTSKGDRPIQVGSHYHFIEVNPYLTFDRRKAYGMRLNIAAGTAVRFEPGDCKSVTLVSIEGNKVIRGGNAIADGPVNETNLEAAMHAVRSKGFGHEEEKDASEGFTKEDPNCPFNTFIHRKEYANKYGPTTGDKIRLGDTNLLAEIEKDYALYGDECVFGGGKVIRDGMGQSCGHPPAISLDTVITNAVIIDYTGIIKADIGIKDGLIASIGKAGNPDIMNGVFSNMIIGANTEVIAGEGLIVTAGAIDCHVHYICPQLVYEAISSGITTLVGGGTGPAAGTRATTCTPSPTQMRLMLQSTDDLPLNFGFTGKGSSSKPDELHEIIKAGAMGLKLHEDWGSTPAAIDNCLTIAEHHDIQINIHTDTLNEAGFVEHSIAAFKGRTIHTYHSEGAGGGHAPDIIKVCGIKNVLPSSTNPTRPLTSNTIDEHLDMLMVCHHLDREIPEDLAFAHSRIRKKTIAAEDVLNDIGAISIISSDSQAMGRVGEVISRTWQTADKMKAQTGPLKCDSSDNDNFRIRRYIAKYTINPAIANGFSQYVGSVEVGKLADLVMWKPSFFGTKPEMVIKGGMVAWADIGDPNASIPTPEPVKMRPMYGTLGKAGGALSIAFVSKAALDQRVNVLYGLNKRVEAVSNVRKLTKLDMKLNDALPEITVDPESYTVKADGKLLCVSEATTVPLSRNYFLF

Chain of urease (JBU; EC 3.5.1.5) (P07374 whole entry, looked up): as above

IC50 (urease (JBU; EC 3.5.1.5))	SMILES	also measured
–	COc1ccc(NC(=O)COc2ccc(-c3nc4cc(C(=O)N5CCN(c6ccccc6)CC5)ccc4[nH]3)cc2OC)cc1 [Compound 9 g, 2-(2-Methoxy-4-(5-(4-phenylpiperazine-1-carbonyl)−1H-benzo[d]imidazol-2-yl)phenoxy)-N-(4-methoxyphenyl)acetamide]	fold more potent than 9d (urease (JBU; EC 3.5.1.5); ratio of IC50 values vs compound 9d): seven-fold
0.35 ± 0.34 µM	COc1cc(-c2nc3cc(C(=O)N4CCN(c5ccccc5)CC4)ccc3[nH]2)ccc1OCC(=O)Nc1ccc([N+](=O)[O-])cc1 [Compound 9 m, 2-(2-Methoxy-4-(5-(4-phenylpiperazine-1-carbonyl)−1H-benzo[d]imidazol-2-yl)phenoxy)-N-(4-nitrophenyl)acetamide]	–
0.51 ± 0.1 µM	CCc1ccc(NC(=O)COc2ccc(-c3nc4cc(C(=O)N5CCN(c6ccccc6)CC5)ccc4[nH]3)cc2OC)cc1 [Compound 9f, N-(4-Ethylphenyl)−2-(2-methoxy-4-(5-(4-phenylpiperazine-1-carbonyl)−1H-benzo[d]imidazol-2-yl)phenoxy)acetamide]	–
1.26 ± 0.06 µM	COc1cc(-c2nc3cc(C(=O)N4CCN(c5ccccc5)CC4)ccc3[nH]2)ccc1OCC(=O)Nc1c(C)cccc1C [Compound 9e, N-(2,6-Dimethylphenyl)−2-(2-methoxy-4-(5-(4-phenylpiperazine-1-carbonyl)−1H-benzo[d]imidazol-2-yl)phenoxy)acetamide]	–
2.72 ± 0.07 µM	COc1cc(-c2nc3cc(C(=O)N4CCN(c5ccccc5)CC4)ccc3[nH]2)ccc1OCC(=O)Nc1cccc(Cl)c1 [Compound 9j, N-(3-Chlorophenyl)−2-(2-methoxy-4-(5-(4-phenylpiperazine-1-carbonyl)−1H-benzo[d]imidazol-2-yl)phenoxy)acetamide]	–
0.82 ± 0.1 µM	COc1cc(-c2nc3cc(C(=O)N4CCN(c5ccccc5)CC4)ccc3[nH]2)ccc1OCC(=O)Nc1ccccc1C [Compound 9b, 2-(2-Methoxy-4-(5-(4-phenylpiperazine-1-carbonyl)−1H-benzo[d]imidazol-2-yl)phenoxy)-N-(o-tolyl)acetamide]	–
2.4 ± 0.36 µM	COc1cc(-c2nc3cc(C(=O)N4CCN(c5ccccc5)CC4)ccc3[nH]2)ccc1OCC(=O)Nc1ccccc1F [Compound 9 h, N-(2-Fluorophenyl)−2-(2-methoxy-4-(5-(4-phenylpiperazine-1-carbonyl)−1H-benzo[d]imidazol-2-yl)phenoxy)acetamide]	–
12.2 ± 1.09 µM	COc1cc(-c2nc3cc(C(=O)N4CCN(c5ccccc5)CC4)ccc3[nH]2)ccc1OCC(=O)Nc1ccc(C)cc1 [Compound 9d, 2-(2-Methoxy-4-(5-(4-phenylpiperazine-1-carbonyl)−1H-benzo[d]imidazol-2-yl)phenoxy)-N-(p-tolyl)acetamide]	–
0.15 ± 0.09 µM	COc1cc(-c2nc3cc(C(=O)N4CCN(c5ccccc5)CC4)ccc3[nH]2)ccc1OCC(=O)Nc1cccc([N+](=O)[O-])c1 [Compound 9 L, 2-(2-Methoxy-4-(5-(4-phenylpiperazine-1-carbonyl)−1H-benzo[d]imidazol-2-yl)phenoxy)-N-(3-nitrophenyl)acetamide]	mode of enzyme inhibition (Jack bean urease): mixed inhibitor
9.24 ± 0.37 µM	COc1cc(-c2nc3cc(C(=O)N4CCN(c5ccccc5)CC4)ccc3[nH]2)ccc1OCC(=O)Nc1ccccc1Cl [Compound 9i, N-(2-Chlorophenyl)−2-(2-methoxy-4-(5-(4-phenylpiperazine-1-carbonyl)−1H-benzo[d]imidazol-2-yl)phenoxy)acetamide]	–
11.1 ± 1.18 µM	COc1cc(-c2nc3cc(C(=O)N4CCN(c5ccccc5)CC4)ccc3[nH]2)ccc1OCC(=O)Nc1ccccc1 [Compound 9a, 2-(2-Methoxy-4-(5-(4-phenylpiperazine-1-carbonyl)−1H-benzo[d]imidazol-2-yl)phenoxy)-N-phenylacetamide]	fold more potent than standard thiourea (X) (urease (JBU; EC 3.5.1.5); ratio of IC50 values, standard thiourea vs compound): two-fold
1.78 ± 0.24 µM	COc1cc(-c2nc3cc(C(=O)N4CCN(c5ccccc5)CC4)ccc3[nH]2)ccc1OCC(=O)Nc1ccc(Cl)cc1 [Compound 9k, N-(4-Chlorophenyl)−2-(2-methoxy-4-(5-(4-phenylpiperazine-1-carbonyl)−1H-benzo[d]imidazol-2-yl)phenoxy)acetamide]	–
